Experimental data taken from patent publication US20020137929A1, “1 - (3-heterocyclylphenyl) isothiourea, -isourea, -guanidine and -amidine herbicidal agents” (Intellectual Property Department, BASF Aktiengesellschaft, priority 1998, published 2002).

What was measured:
CYPSE (Flatsedge) = assay: Preemergence weed control under flooded paddy conditions; assay type: in vivo, Cyperus serotinus; details: rated 3-4 weeks after treatment
Procedure, shortened: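 Silt loam, seeds in top 0.5 cm; flood held 1.5-3 cm; test cpd as acetone/water 50/50 into flood water, ~0.0313-0.500 kg/ha a.i.; greenhouse 3-4 wk; visual 0-9 score vs control.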

ABUTH (Velvetleaf) = assay: Postemergence herbicidal evaluation; assay type: in vivo, Abutilon theophrasti; details: postemergence
Procedure, shortened: (§1)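 Two-week-old seedlings sprayed with compound in 50/50 acetone/water plus 0.5% TWEEN 20, at about 0.0156 to 0.500 kg/ha, nozzle at 40 psi. Kept in greenhouse; rated visually 4-5 weeks after treatment on a 0-9 scale versus control, repeat tests averaged.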

[1] = system: CHEAL (Lambsquarters, Common); assay: Preemergence herbicidal evaluation; assay type: in vivo, Chenopodium album; details: rated 4-5 weeks after treatment
Procedure, shortened: (§2)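 In this greenhouse assay, monocot and dicot seeds are planted in soil and treated prior to emergence with an aqueous acetone spray (about 0.0156-0.500 kg/ha). Plants are assessed visually against control on a 0-9 scale after 4-5 weeks.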

AMBEL (Ragweed, Common) [2] = assay: Postemergence herbicidal evaluation; assay type: in vivo, Ambrosia artemisifolia; details: postemergence
Procedure, shortened: as §1

ORYSAT (Rice, Tebonnet) = assay: Postemergence herbicidal evaluation; assay type: in vivo, Oryza sativa, (L.) Tebonnet; details: postemergence
Procedure, shortened: as §1

[3] = system: GLXMAW (Soybean, Williams); assay: Postemergence herbicidal evaluation; assay type: in vivo, Glycine max, (L.) Merr. cv Williams; details: postemergence
Procedure, shortened: as §1

ZEAMX (Corn, Field) = assay: Postemergence herbicidal evaluation; assay type: in vivo, Zea mays; details: postemergence
Procedure, shortened: as §1

[4] = system: CHEAL (Lambsquarters, Common); assay: Postemergence herbicidal evaluation; assay type: in vivo, Chenopodium album; details: postemergence
Procedure, shortened: as §1

GALAP (Galium) = assay: Preemergence herbicidal evaluation; assay type: in vivo, Galium aparine; details: rated 4-5 weeks after treatment
Procedure, shortened: as §2

AMBEL (Ragweed, Common) [5] = assay: Preemergence herbicidal evaluation; assay type: in vivo, Ambrosia artemisifolia; details: rated 4-5 weeks after treatment
Procedure, shortened: as §2

CASOB (Sicklepod) = assay: Preemergence herbicidal evaluation; assay type: in vivo, Cassia obtusifolia; details: rated 4-5 weeks after treatment
Procedure, shortened: as §2

ECHCG (Barnyardgrass) = assay: Postemergence herbicidal evaluation; assay type: in vivo, Echinochloa crus-galli; details: postemergence
Procedure, shortened: as §1

## Cn1c(C(F)(F)F)cc(=O)n(-c2cc(N=C3SCC(=O)N3C3CCCC3)c(Cl)cc2F)c1=O [Compound 166, 3-{4-Chloro-5-[(3-cyclopentyl-4-oxo-2-thiazolidinylidene)amino]-2-fluorophenyl}-1-methyl-6-(trifluoromethyl)-2,4(1H,3H)-pyrimidinedione]
CYPSE (Flatsedge); 0.0313 kg/ha
  herbicidal effect rating, CYPSE: 0.0
CYPSE (Flatsedge); 0.0625 kg/ha
  herbicidal effect rating, CYPSE: 0.0
CYPSE (Flatsedge); 0.1250 kg/ha
  herbicidal effect rating, CYPSE: 0.0
CYPSE (Flatsedge); 0.2500 kg/ha
  herbicidal effect rating, CYPSE: 0.0
ABUTH (Velvetleaf); rate 0.0156 kg/ha
  Herbicidal rating ABUTH: 2.0
ABUTH (Velvetleaf); rate 0.0313 kg/ha
  Herbicidal rating ABUTH: 1.0
ABUTH (Velvetleaf); rate 0.0625 kg/ha
  Herbicidal rating ABUTH: 3.0
ABUTH (Velvetleaf); rate 0.1250 kg/ha
  Herbicidal rating ABUTH: 9.0
[1]; 0.0156 kg/ha
  Preemergence herbicidal rating CHEAL: 1.0
[1]; 0.0313 kg/ha
  Preemergence herbicidal rating CHEAL: 0.0
[1]; 0.0625 kg/ha
  Preemergence herbicidal rating CHEAL: 3.0
[1]; 0.1250 kg/ha
  Preemergence herbicidal rating CHEAL: 9.0
[1]; 0.2500 kg/ha
  Preemergence herbicidal rating CHEAL: 9.0
[1]; 0.5000 kg/ha
  Preemergence herbicidal rating CHEAL: 9.0
AMBEL (Ragweed, Common) [2]; rate 0.0156 kg/ha
  Herbicidal rating AMBEL: 0.0
AMBEL (Ragweed, Common) [2]; rate 0.0313 kg/ha
  Herbicidal rating AMBEL: 3.0
AMBEL (Ragweed, Common) [2]; rate 0.0625 kg/ha
  Herbicidal rating AMBEL: 6.0
AMBEL (Ragweed, Common) [2]; rate 0.1250 kg/ha
  Herbicidal rating AMBEL: 7.0
ORYSAT (Rice, Tebonnet); rate 0.0156 kg/ha
  Herbicidal rating ORYSAT: 1.0
ORYSAT (Rice, Tebonnet); rate 0.0313 kg/ha
  Herbicidal rating ORYSAT: 0.5
ORYSAT (Rice, Tebonnet); rate 0.0625 kg/ha
  Herbicidal rating ORYSAT: 1.5
ORYSAT (Rice, Tebonnet); rate 0.1250 kg/ha
  Herbicidal rating ORYSAT: 2.0
[3]; rate 0.0156 kg/ha
  Herbicidal rating GLXMAW: 4.0
[3]; rate 0.0313 kg/ha
  Herbicidal rating GLXMAW: 3.5
[3]; rate 0.0625 kg/ha
  Herbicidal rating GLXMAW: 4.0
[3]; rate 0.1250 kg/ha
  Herbicidal rating GLXMAW: 5.0
ZEAMX (Corn, Field); rate 0.0156 kg/ha
  Herbicidal rating ZEAMX: 3.0
ZEAMX (Corn, Field); rate 0.0313 kg/ha
  Herbicidal rating ZEAMX: 3.0
ZEAMX (Corn, Field); rate 0.0625 kg/ha
  Herbicidal rating ZEAMX: 3.5
ZEAMX (Corn, Field); rate 0.1250 kg/ha
  Herbicidal rating ZEAMX: 4.5
[4]; rate 0.0156 kg/ha
  Herbicidal rating CHEAL: 0.0
[4]; rate 0.0313 kg/ha
  Herbicidal rating CHEAL: 1.0
[4]; rate 0.0625 kg/ha
  Herbicidal rating CHEAL: 4.0
[4]; rate 0.1250 kg/ha
  Herbicidal rating CHEAL: 7.0
GALAP (Galium); 0.0156 kg/ha
  Preemergence herbicidal rating GALAP: 0.0
GALAP (Galium); 0.0313 kg/ha
  Preemergence herbicidal rating GALAP: 0.0
GALAP (Galium); 0.0625 kg/ha
  Preemergence herbicidal rating GALAP: 2.0
GALAP (Galium); 0.1250 kg/ha
  Preemergence herbicidal rating GALAP: 5.0
GALAP (Galium); 0.2500 kg/ha
  Preemergence herbicidal rating GALAP: 7.0
GALAP (Galium); 0.5000 kg/ha
  Preemergence herbicidal rating GALAP: 8.0
AMBEL (Ragweed, Common) [5]; 0.0156 kg/ha
  Preemergence herbicidal rating AMBEL: 1.0
AMBEL (Ragweed, Common) [5]; 0.0313 kg/ha
  Preemergence herbicidal rating AMBEL: 0.0
AMBEL (Ragweed, Common) [5]; 0.0625 kg/ha
  Preemergence herbicidal rating AMBEL: 3.0
AMBEL (Ragweed, Common) [5]; 0.1250 kg/ha
  Preemergence herbicidal rating AMBEL: 6.0
AMBEL (Ragweed, Common) [5]; 0.2500 kg/ha
  Preemergence herbicidal rating AMBEL: 7.0
AMBEL (Ragweed, Common) [5]; 0.5000 kg/ha
  Preemergence herbicidal rating AMBEL: 7.0
CASOB (Sicklepod); 0.0156 kg/ha
  Preemergence herbicidal rating CASOB: 0.0
CASOB (Sicklepod); 0.0313 kg/ha
  Preemergence herbicidal rating CASOB: 0.0
CASOB (Sicklepod); 0.0625 kg/ha
  Preemergence herbicidal rating CASOB: 2.0
CASOB (Sicklepod); 0.1250 kg/ha
  Preemergence herbicidal rating CASOB: 0.0
CASOB (Sicklepod); 0.2500 kg/ha
  Preemergence herbicidal rating CASOB: 4.0
CASOB (Sicklepod); 0.5000 kg/ha
  Preemergence herbicidal rating CASOB: 6.0
ECHCG (Barnyardgrass); rate 0.0156 kg/ha
  Herbicidal rating ECHCG: 0.0
ECHCG (Barnyardgrass); rate 0.0313 kg/ha
  Herbicidal rating ECHCG: 0.0
ECHCG (Barnyardgrass); rate 0.0625 kg/ha
  Herbicidal rating ECHCG: 1.0
ECHCG (Barnyardgrass); rate 0.1250 kg/ha
  Herbicidal rating ECHCG: 2.0
